Assay results reported in PubChem BioAssay (NCI).
Where “and” joins values, the source holds several entries; their conditions need not be identical. Equal values may be shown once.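 Dose response: 5 concentrations. Exposure: 48 h. Format: 96-well plates. Endpoint: linear interpolation; highest concentration if not reached. GI50 is the concentration that inhibits growth by half. TGI denotes the concentration required for complete inhibition of growth.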

Assays:
Test in all cases: growth of human tumour cells (NCI), 48 h
CCRF-CEM leukemia = tested on: CCRF-CEM leukemia
COLO 205 colon = tested on: COLO 205 colon
HOP-62 NSCLC = tested on: HOP-62 NSCLC
MOLT-4 leukemia = tested on: MOLT-4 leukemia
OVCAR-4 ovarian = tested on: OVCAR-4 ovarian
U251 CNS = tested on: U251 CNS
SR leukemia = tested on: SR leukemia

SMILES | TGI (CCRF-CEM leukemia) | TGI (COLO 205 colon) | TGI (HOP-62 NSCLC) | TGI (MOLT-4 leukemia) | TGI (OVCAR-4 ovarian) [µM] | TGI (U251 CNS) | TGI (SR leukemia) [µM] | GI50 (SR leukemia) [µM] | GI50 (CCRF-CEM leukemia) [nM] | GI50 (COLO 205 colon) [nM] | GI50 (HOP-62 NSCLC) [nM] | GI50 (MOLT-4 leukemia) [nM] | GI50 (OVCAR-4 ovarian) [µM] | GI50 (U251 CNS) [nM]
COc1ccccc1/C=C1/Sc2scc(CC(=O)Nc3ccccc3)[n+]2C1=O | 51.7 µM | 65.4 µM | > 100 µM | 56.2 µM | > 100 | > 100 µM |  |  |  |  |  |  |  | 
CCOC(=O)c1cc2cc(CSc3ccccc3)ccc2oc1=O | > 100 µM | > 100 µM | > 100 µM | > 100 µM | > 100 | > 100 µM | > 100 |  |  |  |  |  |  | 
CC(C)(N=NC(C)(C)C1=NCCN1)C1=NCCN1 | > 100 µM | > 100 µM | > 100 µM | > 100 µM | > 100 | > 100 µM | > 100 | > 100 |  |  |  |  |  | 
CSc1nc(-c2cc3c(c(SC)n2)CCC3)cc2c1CCC2 | > 100 µM | > 100 µM | > 100 µM | > 100 µM | > 100 | > 100 µM |  |  |  |  |  |  |  | 
Cc1ccnc2c1c(=O)c1ccccc1n2C | > 100 µM | > 100 µM | > 100 µM | 73.8 µM | > 100 | > 100 µM | > 100 |  |  |  |  |  |  | 
C/C(=N/NC(=S)N(Cc1ccccn1)Cc1ccccn1)c1cnccn1 | > 100 µM |  | 14.6 µM | > 34.4 µM | 8.14 | > 47.9 µM | > 55.2 |  |  |  |  |  |  | 
O=C(/C=C/c1ccc(Cl)c(Cl)c1)CCN1CCN(CCC(=O)/C=C/c2ccc(Cl)c(Cl)c2)CC1 | > 100 µM | 70.8 µM | 60.6 µM | > 100 µM | 46.7 | 49.2 µM | > 100 |  |  |  |  |  |  | 
N#Cc1nc(Cc2ccccc2)oc1N | > 100 µM | > 100 µM | > 100 µM | > 100 µM | > 100 | > 100 µM | > 100 |  |  |  |  |  |  | 
CNC(=O)CNC(=O)CCC(=O)N(C)C | > 100 µM | > 100 µM | > 100 µM | > 100 µM |  | > 100 µM |  |  |  |  |  |  |  | 
OCC1CCCCN1Cc1nc2ccc(Cl)cc2[nH]1 (stereo unspecified) | > 100 µM | > 100 µM | > 100 µM | > 100 µM | > 100 | > 100 µM | > 100 |  |  |  |  |  |  | 
CCC(/C=C/c1ccccc1)=N\NC(=S)N/N=C(/C=C/c1ccccc1)CC | > 100 µM | > 100 µM | > 100 µM | > 100 µM | > 100 | > 100 µM | 91.3 |  |  |  |  |  |  | 
CSc1cc(Cl)c(C)cc1S(=O)(=O)NC(=O)NNc1ccccn1 | > 100 µM | > 100 µM | > 100 µM | > 100 µM | > 100 | > 100 µM | > 100 |  |  |  |  |  |  | 
COc1cc2cnc3c(c2cc1OC)Cc1cc2c(cc1-3)OCO2 | 0.0344 µM | > 100 µM | 17.4 µM | 0.205 µM | > 62.8 | 0.517 µM | 0.0145 | < 0.01 | < 10 | < 10 | < 26.8 | < 10 | 13.6 | < 10
CCOC(=O)CC[C@@H](NC(=O)c1ccc(NCc2ccc3nc(OC)c(OC)nc3c2)cc1)C(=O)OCC | > 100 µM | 69.4 µM | > 100 µM | > 31.6 µM | > 100 | > 100 µM | > 87.4 |  |  |  |  |  |  | 
O=[N+]([O-])c1cccc2nc3ccccc3c(NCCNCCO)c12 | 0.101 µM and 0.0455 µM | 0.0106 µM and 0.0213 µM | 0.0799 µM and 0.0174 µM | 0.0891 µM and 0.0113 µM | 0.0162 | 0.0467 µM and 0.0298 µM |  |  |  |  |  |  |  | 
COC(=O)c1cc(C)ccc1CC(Cc1ccccc1C)C(=O)OC (stereo unspecified) | 44.3 µM | > 100 µM | > 100 µM | 24.7 µM | > 100 |  |  |  |  |  |  |  |  | 
COc1ccc(/C=N/n2c(C)n[nH]c2=O)cc1 | > 100 µM | > 100 µM | > 100 µM | > 100 µM | > 100 | > 100 µM |  |  |  |  |  |  |  | 
C#CCSc1cnc2ccccc2c1Sc1c[nH]c2ccccc2c1=O | > 100 µM | > 100 µM | > 100 µM | > 100 µM | > 100 | 50 µM | > 100 |  |  |  |  |  |  | 
Cc1cc2c(cc1Cl)Sc1nnc(C)n1S2(=O)=O | 34.1 µM | 30.7 µM | 57.9 µM | 34.7 µM | 27.2 | 42.8 µM |  |  |  |  |  |  |  | 
CC1(C)SC2C(NC(=O)Cc3ccccc3)C(=O)N2C1C(=O)O (stereo unspecified) |  | > 100 µM | > 100 µM | > 100 µM | > 100 | > 100 µM | > 100 |  |  |  |  |  |  | 
COc1ccc(S(=O)Cc2cc(OC)ccc2OC)cc1 (stereo unspecified) | > 100 µM | > 100 µM | > 100 µM | > 100 µM | > 100 | > 100 µM |  |  |  |  |  |  |  | 
COc1ccc2c(-c3ccc(O)cc3)c(Oc3ccccc3)c(=O)oc2c1 | > 100 µM | > 100 µM | > 100 µM | > 100 µM | > 100 | > 61.5 µM | > 23.4 |  |  |  |  |  |  | 
CSCCCNC(=O)c1csc([C@@H](CSC)NC(=O)CCNC(=O)[C@@H](NC(=O)OCC(Br)(Br)Br)C(C)O)n1 (stereo partly specified) | > 100 µM | > 100 µM | > 100 µM | > 100 µM | > 100 | > 100 µM | > 100 |  |  |  |  |  |  | 
O=C(/C(Cl)=C/c1ccccc1)c1ccccc1 | 11.5 µM |  | 41.5 µM | > 21.3 µM | 16.9 | > 40.1 µM | 6.47 |  |  |  |  |  |  | 
CCOC(=O)c1c(NC(=O)c2ccccc2)sc2c1CCC2 | > 100 µM | > 100 µM | > 100 µM | > 100 µM |  |  | > 100 |  |  |  |  |  |  | 
CC1(C)OC2CN(C(=O)OCc3ccccc3)C(CO)C2O1 (stereo unspecified) |  | > 100 µM | > 100 µM | > 100 µM | > 100 | > 100 µM |  |  |  |  |  |  |  | 
COc1cc(/C=C2\CCc3cc(OC)c(OC)cc3C2=O)cc(OC)c1 | > 60 µM | > 52.1 µM | > 87.1 µM | > 100 µM | > 100 | > 100 µM |  |  |  |  |  |  |  | 
CCOC(=O)/C=C/[C@H](O[Si](c1ccccc1)(c1ccccc1)c1ccccc1)C(C)(C)C | > 31.6 µM | > 31.6 µM | > 31.6 µM | > 31.6 µM | > 31.6 | > 31.6 µM |  |  |  |  |  |  |  | 
C/C=C/OC1C(C2COC(C)(C)O2)OC2OC(C)(C)OC21 (stereo unspecified) | > 100 µM |  | > 100 µM | > 100 µM | > 100 | > 100 µM | > 100 |  |  |  |  |  |  | 
